The results in this text go back to patent US20140350034A1, “Aminopyridine derivatives as plasma kallikrein inhibitors” (NOVARTIS AG, priority 2012, published 2014).

Broadly, the IC50 is the concentration that gives 50% inhibition. A high value points to a need for much substance.

The target of one assay is T1, Human plasma kallikrein (Homo sapiens, UniProt P03952).
T1 construct: purchased Kordia (Leiden, Netherlands) batch HPKA 1303
T1 sequence (P03952 391-638 limits assumed): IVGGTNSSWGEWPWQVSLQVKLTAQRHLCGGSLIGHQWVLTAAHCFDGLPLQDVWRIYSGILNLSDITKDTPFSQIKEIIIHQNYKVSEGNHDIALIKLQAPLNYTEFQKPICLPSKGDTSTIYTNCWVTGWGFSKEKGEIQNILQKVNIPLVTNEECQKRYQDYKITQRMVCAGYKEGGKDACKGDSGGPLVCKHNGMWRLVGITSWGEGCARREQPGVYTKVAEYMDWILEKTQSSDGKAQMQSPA
T1 sequence (P03952 20-390 partner limits assumed): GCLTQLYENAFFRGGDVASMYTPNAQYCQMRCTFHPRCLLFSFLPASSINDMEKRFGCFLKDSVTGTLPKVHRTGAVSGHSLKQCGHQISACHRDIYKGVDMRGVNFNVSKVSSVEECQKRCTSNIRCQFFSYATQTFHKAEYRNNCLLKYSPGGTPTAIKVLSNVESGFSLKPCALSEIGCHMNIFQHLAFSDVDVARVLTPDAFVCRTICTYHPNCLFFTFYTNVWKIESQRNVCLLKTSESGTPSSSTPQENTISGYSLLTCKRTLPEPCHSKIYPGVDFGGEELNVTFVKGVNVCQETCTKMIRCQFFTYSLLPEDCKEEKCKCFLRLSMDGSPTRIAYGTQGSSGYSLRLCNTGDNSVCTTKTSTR
Put plainly: In vitro inhibition of plasma kallikrein (fluorogenic substrate DPro-Phe-Arg-(Rh110)-γGlu-OH). The class given is biochemical. The following applies: human plasma kallikrein 12 pM, substrate 0.5 μM, 1 hour pre-incubation at room temperature, read after 1 hour. On the procedure:
In Vitro Inhibition of Plasma Kallikrein
The fluorogenic substrate DPro-Phe-Arg-(Rh110)-γGlu-OH (where DPro is the amino acid d-proline, Rh110 is the fluorophore rhodamine 110 and γGlu is a […] linked to Rh110 via the gamma-carbonyl function; from Biosyntan, Berlin, Germany), being based on the chromogenic substrate described in Gallimore et al (Thromb Res 25, 293-298, 1982), was dissolved in DMSO at 5 mM and stored at −80° C. All other chemicals were of analytical grade.
Human plasma kallikrein was purchased from Kordia (Leiden, Netherlands, batch HPKA 1303) in lyophilized form.
The protein solution was reconstituted from the lyophilisate by addition of deinonized water. The resulting stock solution comprised the protein at a concentration of 0.17 mg/ml in 4 mM sodium acetate/HCl and 150 mM NaCl at pH 5.3. The stock solution was stored in aliquots at −80° C.
Enzymatic reactions were conducted in ‘assay buffer’, comprising 50 mM Hepes/NaOH at pH 7.8, 150 mM NaCl, 1 mM EDTA and 0.05% (w/v) CHAPS.
Both, enzyme and substrate were diluted in assay buffer.
All protein and peptide containing solutions were handled in siliconized tubes (Life Systems Design, Merenschwand, Switzerland). The compound solutions as well as the enzyme and the substrate solutions were transferred to 384-well plates (black Cliniplate; cat. no. 95040020 Labsystems Oy, Finland) by means of a CyBi-Well 96-channel pipettor (CyBio AG, Jena, Germany). Plate measurements were conducted by the means of a Safire2 reader (TECAN, Maennedorf, Switzerland). The Safire2 is a monochomator-based instrument and wavelengths of 485 nm and 535 nm were taken for fluorescence excitation and emission acquisition, respectively. The bandwidths were set to 10 nm in both the excitation and the emission path. The fluorescence in each well was excited by three flashes per measurement.
Determination of IC50 Values
For the determination of IC50 values, the assays were performed at room temperature in 384-well plates with a total assay volume of 25.25 μl per well.
The test compound was dissolved in 90% (v/v) DMSO/water. For the assays, 250 nL of the 90% (v/v) DMSO/water solution or compound solution were added per well, followed by the addition of 12.5 μl protease solution (protease in assay buffer). The final assay concentration of the human plasma kallikrein was nominally 12 pM, the 11 compound concentrations in the dilution series were in the range form 1 nM to 100 μM. After 1 hour of pre-incubation at room temperature, the reactions were started by the addition of 12.5 μl substrate solution (in assay buffer, final assay concentration was 0.5 μM). After the addition of the substrate solution, the final DMSO concentration in the assay was 0.9% (v/v). The effect of the compound on the enzymatic activity was obtained from the linear part of the progress curves and determined after 1 hour (t=60 min). The IC50 value was calculated from the plot of percentage of inhibition vs. inhibitor concentration by a logistics fit according to the following equation:
where y is the %-inhibition at the inhibitor concentration, x. A1 is the lowest inhibition value, i.e. 0%, and A2 the maximum inhibition value, i.e. 100%. The exponent, p, is the Hill coefficient. The curve fitting was conducted with the non-linear regression routine of the analysis software Origin 7.5SR6 (Origin Lab Corporation).
Turning to `CCc1cc2c(NCc3c(C)cc(N)nc3C)ncnc2s1` [Example 1, N-((6-amino-2,4-dimethylpyridin-3-yl)methyl)-6-ethylthieno[2,3-d]pyrimidin-4-amine], the half-maximal inhibitory concentration (IC50) is 27.1 µM.

As to `Cc1cc(N)nc(C)c1CNC(=O)c1cc2ccccc2o1` [Example 2, N-((6-amino-2,4-dimethylpyridin-3-yl)methyl)benzofuran-2-carboxamide], the IC50 amounted to 4.73 µM.

For `Cc1cc(N)nc(C)c1CNC(=O)c1cc2ccccc2s1` [Example 3, N-((6-amino-2,4-dimethylpyridin-3-yl)methyl)benzo[b]thiophene-2-carboxamide], half-maximal inhibition (IC50) was put at 5.39 µM.

The molecule `Cc1cc(N)nc(C)c1CNc1ncnc2oc(Cc3c(Cl)cccc3Cl)nc12` [Example 4, N-((6-amino-2,4-dimethylpyridin-3-yl)methyl)-2-(2,6-dichlorobenzyl) oxazolo[5,4-d]pyrimidin-7-amine] had a concentration for half-maximal inhibition (IC50) of 1.78 µM.

`Cc1cc(N)nc(C)c1CNC(=O)c1cc2ccccc2[nH]1` [Example 5, N-((6-amino-2,4-dimethylpyridin-3-yl)methyl)-1H-indole-2-carboxamide] registered an IC50 of 3.81 µM.

In turn, `Cc1cc(N)nc(C)c1CNC(=O)c1ccc2ccccc2c1` [Example 6, N-((6-amino-2,4-dimethylpyridin-3-yl)methyl)-2-naphthamide] yielded an IC50 of 2.32 µM.

With `Cc1cc(N)nc(C)c1CNc1ncc2ccn(Cc3ccc4ccccc4c3)c2n1` [Example 7, N-((6-amino-2,4-dimethylpyridin-3-yl)methyl)-7-(naphthalen-2-ylmethyl)-7H-pyrrolo[2,3-d]pyrimidin-2-amine], the 50% inhibitory concentration (IC50) was determined as 1.63 µM.

The assay is the same for the next values; noted with them: the above-described assay (human plasma kallikrein).
In turn, `COc1cc2ncnc(NCc3c(C)cc(N)nc3C)c2cc1OC` [N-((6-amino-2,4-dimethyl-pyridin-3-yl)-methyl)-8,9-dimethoxy-2,4-diaza-bicyclo[4.4.0]deca-1(6),2,4,7,9-pentaen-5-amine] gave an IC50 greater than 30 µM.

In the case of `Cc1cc(N)nc(C)c1CNc1ncnc2c1ccn2C` [N-((6-amino-2,4-dimethyl-pyridin-3-yl)-methyl)-9-methyl-2,4,9-triaza-bicyclo[4.3.0]nona-1(6),2,4,7-tetraen-5-amine], the IC50 is greater than 30 µM.
